SMILES strings stand for the structures. “And” between values parts separate entries of the source, which are not always exact repeats. Equal values may be shown once.

Type in all cases: functional
The test system of test [1] is Candida albicans. Description: Reduction in antifungal activity of amphotericine B was determined against Candida albicans after addition of 60 ppm of cholesterol to the culture.
Test [2] has as its system Candida albicans. Description: Residual antifungal activity of amphotericine B was determined against Candida albicans after addition of 60 ppm of cholesterol to the culture.
For test [3], the system named is Candida albicans. The test is described as follows: Residual antifungal activity of amphotericine B was determined against Candida albicans after addition of 30 ppm of ent-cholesterol to the culture; (Range 14-24 mm).
The subject of test [4] is Candida albicans. The test is described as follows: Reduction in antifungal activity of amphotericine B was determined against Candida albicans after addition of 60 ppm of compound to the culture.

Consider `C[C@@H]1[C@H](O)[C@@H](C)/C=C/C=C/C=C/C=C/C=C/C=C/C=C/[C@H](O[C@@H]2O[C@H](C)[C@@H](O)[C@H](N)[C@@H]2O)C[C@@H]2O[C@](O)(C[C@@H](O)C[C@@H](O)[C@H](O)CC[C@@H](O)C[C@@H](O)CC(=O)O[C@H]1C)C[C@H](O)[C@H]2C(=O)O` [AMPHOTERICIN B], for which the Antifungal activity was 82% in the test on Candida albicans [1]; 73% in the test on Candida albicans [2]; 87% with Candida albicans [3]; 76% and 62% with Candida albicans [4].

The values are drawn from ChEMBL document CHEMBL1148246, “Differential modulation of the antifungal activity of amphotericin B by natural and ent-cholesterol” (2004).
